Assay results reported in US20210346506A1, “PRODRUG OF ITRACONAZOLE AND USES THEREOF” (priority 2020, published 2021).

Assays:
[1] = Compound stability test in human blood; assay type: in vitro ADME; conditions: for Remaining Percentages (%) / half-life at 1 μM: 37° C., 1 μM; for half-life at 1 μM: in vitro half-life in human blood
Procedure: (§1) One (1) mM test compound working solution was prepared in DMSO. One (1) mM propantheline working solution was prepared in acetonitrile, wherein propantheline was used as positive control in this assay.
(§2) Ten (10) μL of each test compound solution and the control compound solution were respectively added into a 96 deep well plate, and 40 μL of acetonitrile:water (V/V=1:1) was added to each well to dilute the 1 mM test compound solution to 200 μM working solution.
(§3) Mouse blood (male CD-1 mouse blood, Pharmaron, Lot# PH-ADME-Mouse-20180329) or human blood (Pharmaron, Lot# PH-ADME-Human-20180329) of 398 μL was added to each well of an incubation plate, and then the incubation plate was pre-warmed at 37° C. for 15 minutes. After the pre-incubation, 2 μL of 200 μM working solution prepared above was spiked to the pre-warmed 398 μL blood to reach a final concentration of 1 μM. The final concentration of DMSO was 0.1% and the final concentration of acetonitrile was 0.2%. The assay was performed in duplicate.
(§4) The incubation plate was incubated at 37° C. water bath with shaking at 50 rpm, and aliquots of 50 μL were taken from each well of the incubation plate at 0, 10, 30, 60, 90, 120 and 180 minutes.
(§5) The reaction was stopped by the addition of 50 μL of pure water. The plate was vortexed for 30 seconds at 1,000 rpm and then added with 300 μL of cold acetonitrile containing internal standards (100 nM aprozolam, 200 nM caffeine, 100 nM tolbutamide).
(§6) All samples were vortexed for 10 minutes, followed by centrifugation at 14,000 rpm for 15 minutes to precipitate proteins. 100 μL of each supernatant was transferred to a new plate, and diluted with ultrapure water according to the LC-MS signal response and peak shape.
(§7) Samples were analyzed by LC-MS/MS.
(§8) • LC system: ACQUITY UPLC® I-Class • MS analysis: Waters XEVO® TQ-D with an ESI interface • Column temperature: 40° C. • Injection volume: 3 μL • Column: Waters XSelect HSS T3 C18, 2.5 μm, 2.1×50 mm column • Mobile phase: 0.1% formic acid in water (A) and 0.1% formic acid in acetonitrile (B)
(§9) • Ion source: Turbo spray • Ionization model: ESI • Scan type: MRM • Cone gas: 150 L/h • Desolvation gas: 1000 L/h • Desolvation temperature: 500° C. • Capillary voltage: 3.00 KV
(§10) All calculations were carried out using Microsoft Excel. Peak area ratios were determined from extracted ion chromatograms, and percent compounds remaining at each time point were calculated by the following equation:
(§11) Remaining Percentaget min(%)=Peak Area Ratiot min/Peak Area Ratio0 min×100, where Peak Area Ratiot min referred to peak area ratio of control and test compounds at t min; and Peak Area Ratio0 min referred to peak area ratio of control and test compounds at zero time point. The in vitro half-life (in vitro t1/2) was determined from the slope value: In vitro T1/2=−(0.693/k).

[2] = Pharmacokinetic study of itraconazole release in mice after intravenous and oral dosing of Compound 3; assay type: in vivo, mouse; conditions: for Plasma itraconazole Concentration (ng/mL): mice, individual mice
Procedure: Compound 3 was dissolved in DMSO:PEG400:water (1:4:5, v/v/v) with a final concentration of 0.2 mg/ml or 0.5 mg/ml. The 0.2 mg/ml solution was used for intravenous dosing, and the 0.5 mg/ml solution was for oral dosing.
Three male C57BL/6 mice were intravenously administered with Compound 3 at a dose of 1.0 mg/kg, and blood samples were collected at 2 min, 15 min, 30 min, 1 h, 2 h, 4 h, 6 h, 8 h, and 24 h post administration.
Three male C57BL/6 mice were orally given Compound 3 at a dose of 5.0 mg/kg, and blood samples were collected at 15 min, 30 min, 1 h, 2 h, 4 h, 6 h, 8 h, and 24 h post administration.
(§12) And dose levels were corrected in PK parameter calculation due to the salt factor.
(§13) The blood samples were subject to LC-MS/MS analysis, to monitor the plasma concentrations of both the parent compound and Itraconazole.
(§14) Column: Waters XSELECT HSS T3 2.5 μm 2.1×50 mm
(§15) Mobile phase: 5% Acetonitrile in Water (0.1% Formic acid) (A) and 95% Acetonitrile in Water (0.1% Formic acid) (B)
(§16) Gradient: flow rate at 0.6 mL/min
(§17) AB Sciex Triple Quad 5500 LC/MS/MS instrument (Serial NO. BB212611510)
(§18) Quantification: Internal Standard Method

[3] = Compound stability test in mouse blood; assay type: in vitro ADME; conditions: for half-life at 1 μM: male, CD-1, in vitro half-life in mouse blood; for half-life at 1 μM / Remaining Percentages (%): 37° C., 1 μM
Procedure: as §1, §2, §3, §4, §5, §6, §7, §8, §9, §10, §11

[4] = Pharmacokinetic study of itraconazole release in mice after intravenous and oral dosing of Compound 6; assay type: in vivo, mouse; conditions: for Plasma itraconazole Concentration (ng/mL): mice, individual mice
Procedure: Compound 6 was dissolved in DMSO:PEG400:water (1:4:5, v/v/v) with a final concentration of 0.2 mg/ml or 0.5 mg/ml. The 0.2 mg/ml solution was used for intravenous dosing, and the 0.5 mg/ml solution was for oral dosing.
Three male C57BL/6 mice were intravenously administered with Compound 6 at a dose of 1.0 mg/kg, and blood samples were collected at 2 min, 15 min, 30 min, 1 h, 2 h, 4 h, 6 h, 8 h, and 24 h post administration.
Three male C57BL/6 mice were orally given Compound 6 at a dose of 5.0 mg/kg, and blood samples were collected at 15 min, 30 min, 1 h, 2 h, 4 h, 6 h, 8 h, and 24 h post administration.
as §12, §13, §14, §15, §16, §17, §18

[5] = relatively low dose; cited from earlier work

SMILES | Remaining Percentages (%) ([1]; human blood, 0 min) | Remaining Percentages (%) ([1]; human blood, 10 min) | Remaining Percentages (%) ([1]; human blood, 30 min) | Remaining Percentages (%) ([1]; human blood, 60 min) | Remaining Percentages (%) ([1]; human blood, 90 min) | Remaining Percentages (%) ([1]; human blood, 120 min) | Remaining Percentages (%) ([1]; human blood, 180 min) | half-life at 1 μM [1] [min] | half-life at 1 μM [3] [min] | Remaining Percentages (%) ([3]; mouse blood, 0 min) | Remaining Percentages (%) ([3]; mouse blood, 10 min) | Remaining Percentages (%) ([3]; mouse blood, 30 min) | Remaining Percentages (%) ([3]; mouse blood, 60 min) | Remaining Percentages (%) ([3]; mouse blood, 90 min) | Remaining Percentages (%) ([3]; mouse blood, 120 min) | Remaining Percentages (%) ([3]; mouse blood, 180 min) | other results
CCC(C)n1ncn(-c2ccc(N3CCN(c4ccc(OCC5COC(Cn6c[n+](COC(C)=O)cn6)(c6ccc(Cl)cc6Cl)O5)cc4)CC3)cc2)c1=O.[Cl-] (stereo not drawn) [Compound 3] | 100 | 94.0 | 82.3 | 67.5 | 61.5 | 55.3% | 34.3% | 123 | 59 | 100 | 88.1 | 67.1 | 46.3 | 30.3 | 24.4 | 12.0 | stability in blood, in words ([1]; human blood): more stable among exemplary compounds; abnormal clinical symptoms during the test ([2]; male C57BL/6 mice, 1.0 mg/kg intravenous or 5.0 mg/kg oral Compound 3): No mice were observed with abnormal clinical symptoms; Plasma itraconazole Concentration (ng/mL) ([2]; IV Dose 0.860 mg/kg Compound 3, 8 h, 0.86 mg/kg): BLOQ; Plasma itraconazole Concentration (ng/mL) ([2]; IV Dose 0.860 mg/kg Compound 3, 24 h): BLOQ; Plasma itraconazole Concentration (ng/mL) ([2]; PO Dose 4.30 mg/kg Compound 3, 24 h): BLOQ; stability in blood, in words ([3]; mouse blood): more stable among exemplary compounds
CCOC(=O)OC[n+]1cnn(CC2(c3ccc(Cl)cc3Cl)OCC(COc3ccc(N4CCN(c5ccc(-n6cnn(C(C)CC)c6=O)cc5)CC4)cc3)O2)c1.[Cl-] (stereo not drawn) [Compound 6] | 100 | 94.2 | 77.3 | 55.3 | 41.1 | 34.0% | 15.2% | 67.4 | 10 | 100 | 51.5 | 12.6 | 3.10 | 0.595 | 0.186 | 0.232 | abnormal clinical symptoms during the test ([4]; male C57BL/6 mice, 1.0 mg/kg intravenous or 5.0 mg/kg oral Compound 6): No mice were observed with abnormal clinical symptoms; Plasma itraconazole Concentration (ng/mL) ([4]; IV Dose 0.822 mg/kg Compound 6, 8 h, 0.822 mg/kg): BLOQ; Plasma itraconazole Concentration (ng/mL) ([4]; IV Dose 0.822 mg/kg Compound 6, 24 h): BLOQ; Plasma itraconazole Concentration (ng/mL) ([4]; PO Dose 4.11 mg/kg Compound 6, 24 h): BLOQ
CCC(C)n1ncn(-c2ccc(N3CCN(c4ccc(OCC5COC(Cn6c[n+](COC(=O)OC(C)C)cn6)(c6ccc(Cl)cc6Cl)O5)cc4)CC3)cc2)c1=O.[Cl-] (stereo not drawn) [Compound 8] | 100 | 31.6 | 1.40 | 0.785 | 0.616 | BLOD | BLOD | 6.03 | 21.9 | 100 | 71.2 | 40.2 | 14.8 | 7.0 | 3.99 | 1.03 | 
CCC(C)n1ncn(-c2ccc(N3CCN(c4ccc(OCC5COC(Cn6cncn6)(c6ccc(Cl)cc6Cl)O5)cc4)CC3)cc2)c1=O (stereo not drawn) [Itraconazole] |  |  |  |  |  |  |  |  |  |  |  |  |  |  |  |  | adverse effect, in words [5]: no observed adverse effect
CC(C)[N+](C)(CCOC(=O)C1c2ccccc2Oc2ccccc21)C(C)C [Propantheline, propantheline, reference compound] | 100 | 85.5 | 55.8 | 29.2 | 15.2 | 6.83% | 1.84% | 32.8 | 38.8 | 100 | 88.8 | 62.4 | 34.8 | 20.4 | 12.3 | 4.44 | 
